Measured values reported in BindingDB's records for PubMed 14633714 (Abbott Laboratories, 2003).

Molecular target: Methionine aminopeptidase 1 (Homo sapiens, UniProt P53582)
Assay: MetAP Enzyme Activity Assay
Settings: pH 7.4; 22 °C
Method: A coupled enzyme chromogenic assay was developed to measure methionine aminopeptidase activity by monitoring the production of free methionine with L-amino acid oxidase and horseradish peroxidase. Assays were performed in 96-well microtiter plates. The reactions were carried out at room temperature, and absorbance at 450 nm (A450) was measured every 20 s over a period of 20 min using an automatic plate reader (Molecular Devices, CA). The rate in mOD/min, calculated for each well, was converted to nM methionine releases per minute per nM MetAP in the reaction.

Row | Compound | IC50
1 | CCSCC[C@@H](N)[C@H](O)C(=O)NNC(=O)c1cccc(Cl)c1 [N'-[(2S,3R)-3-amino-5-(ethylsulfanyl)-2-hydroxypentanoyl]-3-chlorobenzohydrazide] | 20 µM
2 | CCOC(=O)[C@H](C)NC(=O)[C@@H](O)[C@H](N)CCSC [ethyl (2S)-2-[(2S,3R)-3-amino-2-hydroxy-5-(methylsulfanyl)pentanamido]propanoate] | 63 µM
3 | CCSCC[C@@H](N)[C@H](O)C(=O)N[C@@H](C)c1cccc2ccccc12 [bestatin-type inhibitor, 4] | 0.37 µM
4 | CC(C)CSC[C@@H](N)[C@H](O)C(=O)N[C@@H](C)c1cccc2ccccc12 | 2.2 µM

Continued by falling IC50, values first:

Row | IC50 | Compound
5 | 69 µM | CCOC(=O)[C@H](C)NC(=O)[C@@H](O)[C@H](N)CCSCC [ethyl (2S)-2-[(2S,3R)-3-amino-5-(ethylsulfanyl)-2-hydroxypentanamido]propanoate]
6 | 66 µM | CCOC(=O)[C@H](C)NC(=O)[C@@H](O)[C@H](N)CSCC(C)C [ethyl (2S)-2-[(2S,3S)-3-amino-2-hydroxy-4-[(2-methylpropyl)sulfanyl]butanamido]propanoate]
7 | 57 µM | CC(C)SCC[C@@H](N)[C@H](O)C(=O)NNC(=O)c1cccc(Cl)c1 [N'-[(2S,3R)-3-amino-2-hydroxy-5-(propan-2-ylsulfanyl)pentanoyl]-3-chlorobenzohydrazide]
8 | 12 µM | CC(C)SCC[C@@H](N)[C@H](O)C(=O)N[C@@H](C)c1cccc2ccccc12
9 | 8.1 µM | CC(C)CSC[C@@H](N)[C@H](O)C(=O)NNC(=O)c1cccc(Cl)c1
